Source: patent US8022206B2 (OSI Pharmaceuticals, LLC, priority 2008, dated 2011)
pIC50: −log10 of the molar value.

Tests used:
MET (human) = MET (human) (Homo sapiens, UniProt P08581); assay: MET (human) AlphaScreen kinase assay, Km of ATP; assay type: biochemical; settings: AlphaScreen, Km of ATP; read-out: Met biochemical IC50
In short: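 Human MET at lot-optimised concentration in 50 mM Tris pH 7.4 buffer with 1 mM DTT, compound at 1% DMSO final; enzyme starts the reaction, 60 min at RT.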

RON (human) = RON (human) (Homo sapiens, UniProt Q04912); assay: RON (human) AlphaScreen kinase assay, Km of ATP; assay type: biochemical; settings: AlphaScreen, Km of ATP; read-out: RON biochemical IC50
In short: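 Detection used PT66 AlphaScreen beads added in Tris pH 7.5/NaCl/EDTA/BSA buffer, read after 1 h incubation. Vehicle-only DMSO wells served as controls.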

Chain of MET (human) (P08581 25-1390): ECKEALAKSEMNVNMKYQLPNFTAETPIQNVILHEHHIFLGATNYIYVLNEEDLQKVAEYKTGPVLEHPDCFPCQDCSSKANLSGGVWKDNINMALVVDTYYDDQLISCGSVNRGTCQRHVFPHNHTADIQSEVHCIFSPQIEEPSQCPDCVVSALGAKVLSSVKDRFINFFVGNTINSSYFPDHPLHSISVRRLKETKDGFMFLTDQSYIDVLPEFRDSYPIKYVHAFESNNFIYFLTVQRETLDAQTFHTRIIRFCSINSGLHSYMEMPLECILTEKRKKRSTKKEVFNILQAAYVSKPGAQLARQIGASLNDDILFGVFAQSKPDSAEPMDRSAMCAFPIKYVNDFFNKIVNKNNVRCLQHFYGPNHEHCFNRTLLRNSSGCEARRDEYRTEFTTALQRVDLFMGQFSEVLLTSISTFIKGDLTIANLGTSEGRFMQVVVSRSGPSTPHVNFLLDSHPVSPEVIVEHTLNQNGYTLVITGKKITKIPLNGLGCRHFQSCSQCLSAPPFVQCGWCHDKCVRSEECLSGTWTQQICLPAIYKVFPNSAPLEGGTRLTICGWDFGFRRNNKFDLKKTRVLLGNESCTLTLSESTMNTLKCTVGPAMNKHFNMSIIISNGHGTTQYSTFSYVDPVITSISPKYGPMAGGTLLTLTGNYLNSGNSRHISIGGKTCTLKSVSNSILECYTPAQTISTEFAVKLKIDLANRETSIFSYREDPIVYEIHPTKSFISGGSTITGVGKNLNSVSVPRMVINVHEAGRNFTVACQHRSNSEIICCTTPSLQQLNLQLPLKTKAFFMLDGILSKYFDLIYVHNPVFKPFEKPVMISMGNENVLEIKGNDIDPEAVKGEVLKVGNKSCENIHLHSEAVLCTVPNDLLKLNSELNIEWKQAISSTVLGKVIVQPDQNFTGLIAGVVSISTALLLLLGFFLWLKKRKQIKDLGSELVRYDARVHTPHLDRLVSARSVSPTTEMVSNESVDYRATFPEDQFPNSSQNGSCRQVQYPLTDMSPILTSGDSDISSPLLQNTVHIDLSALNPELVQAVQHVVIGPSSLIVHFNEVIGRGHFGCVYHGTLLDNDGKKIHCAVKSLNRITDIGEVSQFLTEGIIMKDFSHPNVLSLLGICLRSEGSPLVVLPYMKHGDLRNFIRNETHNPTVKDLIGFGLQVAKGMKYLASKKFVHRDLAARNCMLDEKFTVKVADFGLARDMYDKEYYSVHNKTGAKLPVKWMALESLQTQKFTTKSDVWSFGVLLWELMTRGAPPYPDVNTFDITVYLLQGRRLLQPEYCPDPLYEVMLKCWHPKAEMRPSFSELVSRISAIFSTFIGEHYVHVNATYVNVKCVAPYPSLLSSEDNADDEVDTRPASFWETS
Chain of RON (human) (Q04912 25-1400): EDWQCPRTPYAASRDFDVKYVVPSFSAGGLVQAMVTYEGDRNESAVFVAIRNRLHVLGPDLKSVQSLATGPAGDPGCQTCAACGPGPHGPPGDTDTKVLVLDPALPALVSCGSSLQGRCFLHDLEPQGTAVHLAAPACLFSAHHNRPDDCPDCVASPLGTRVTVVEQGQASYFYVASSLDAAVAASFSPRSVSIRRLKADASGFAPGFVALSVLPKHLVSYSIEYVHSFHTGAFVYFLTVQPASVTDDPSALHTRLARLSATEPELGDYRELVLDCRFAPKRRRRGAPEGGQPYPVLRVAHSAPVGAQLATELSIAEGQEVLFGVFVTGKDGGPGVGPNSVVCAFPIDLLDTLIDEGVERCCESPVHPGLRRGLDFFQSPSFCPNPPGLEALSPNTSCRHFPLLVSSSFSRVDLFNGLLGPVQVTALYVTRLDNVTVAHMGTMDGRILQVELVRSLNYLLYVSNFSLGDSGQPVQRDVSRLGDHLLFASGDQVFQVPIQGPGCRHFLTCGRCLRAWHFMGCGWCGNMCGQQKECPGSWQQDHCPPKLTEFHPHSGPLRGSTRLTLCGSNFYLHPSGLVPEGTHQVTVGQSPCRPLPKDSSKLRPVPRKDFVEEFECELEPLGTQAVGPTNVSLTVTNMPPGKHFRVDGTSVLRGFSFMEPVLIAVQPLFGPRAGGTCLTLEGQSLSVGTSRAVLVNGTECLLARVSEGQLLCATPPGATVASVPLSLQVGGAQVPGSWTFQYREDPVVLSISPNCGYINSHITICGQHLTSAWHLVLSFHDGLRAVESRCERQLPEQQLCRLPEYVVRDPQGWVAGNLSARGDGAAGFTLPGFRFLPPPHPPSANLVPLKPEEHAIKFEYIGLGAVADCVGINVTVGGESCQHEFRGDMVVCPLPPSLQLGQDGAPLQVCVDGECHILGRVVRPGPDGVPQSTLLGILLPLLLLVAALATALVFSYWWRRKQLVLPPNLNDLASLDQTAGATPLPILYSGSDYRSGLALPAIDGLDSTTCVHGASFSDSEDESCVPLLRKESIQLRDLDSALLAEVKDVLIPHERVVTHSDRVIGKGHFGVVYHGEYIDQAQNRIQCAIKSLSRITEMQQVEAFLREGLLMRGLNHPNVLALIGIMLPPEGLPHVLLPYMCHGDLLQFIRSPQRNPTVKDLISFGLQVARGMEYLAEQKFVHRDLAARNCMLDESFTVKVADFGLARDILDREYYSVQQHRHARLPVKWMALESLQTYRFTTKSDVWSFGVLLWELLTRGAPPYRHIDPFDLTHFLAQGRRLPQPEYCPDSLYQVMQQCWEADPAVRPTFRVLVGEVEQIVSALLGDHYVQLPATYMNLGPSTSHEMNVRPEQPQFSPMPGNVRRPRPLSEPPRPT

Row | pIC50 (MET (human)) | pIC50 (RON (human)) | Compound
1 | 5.30 to 6.30 | 5.30 to 6.30 | C[C@@H](Oc1c(N)ncc2c(-c3cnn(C4CCN(S(C)(=O)=O)CC4)c3)coc12)c1c(Cl)ccc(F)c1Cl [Example 275, 7-[(1R)-1-(2,6-Dichloro-3-fluorophenyl)ethoxy]-3-{1-[1-(methyl-sulfonyl)piperidin-4-yl]-1H-pyrazol-4-yl}furo[3,2-c]pyridin-6-amine]
2 | > 6.30 | > 6.30 | CC(Cc1cccc(Br)c1)Oc1c(N)ncc2c(-c3cnn(C4CCNCC4)c3)coc12 (stereo not shown) [Example 439, 7-[2-(3-Bromophenyl)-1-methylethoxy]-3-(1-piperidin-4-yl-1H-pyrazol-4-yl)furo[3,2-c]pyridin-6-ylamine]
3 | 5.30 to 6.30 | 5.30 to 6.30 | CC(Oc1c(N)ncc2c(-c3cnn(C4CCNCC4)c3)coc12)c1ccc(Cl)cc1 (stereo not shown) [Example 377, 7-[1-(4-Chlorophenyl)ethoxy]-3-(1-piperidin-4-yl-1H-pyrazol-4-yl)furo[3,2-c]pyridin-6-ylamine]
4 | > 6.30 | 5.30 to 6.30 | CC(Oc1c(N)ncc2c(-c3cnn(C4CCNCC4)c3)coc12)c1cc(F)cc(-c2cn[nH]c2)c1 (stereo not shown) [Example 451, 7-{1-[3-Fluoro-5-(1H-pyrazol-4-yl)phenyl]ethoxy}-3-(1-piperidin-4-yl-1H-pyrazol-4-yl)furo[3,2-c]pyridin-6-ylamine]
5 | 5.30 to 6.30 | > 6.30 | CC(Cc1ccc(Cl)c(Cl)c1)Oc1c(N)ncc2c(-c3cnn(C4CCNCC4)c3)coc12 (stereo not shown) [Example 428, 7-[2-(3,4-Dichlorophenyl)-1-methylethoxy]-3-(1-piperidin-4-yl-1H-pyrazol-4-yl)furo[3,2-c]pyridin-6-ylamine]
6 | > 6.30 | 5.30 to 6.30 | CC(Oc1c(N)ncc2c(-c3cnn(C4CCNCC4)c3)coc12)c1ccc(Cl)cc1F (stereo not shown) [Example 378, 7-[1-(4-Chloro-2-fluorophenyl)ethoxy]-3-(1-piperidin-4-yl-1H-pyrazol-4-yl)furo[3,2-c]pyridin-6-ylamine]
7 | > 6.30 | > 6.30 | CC(Oc1c(N)ncc2c(-c3cnn(C4CCNCC4)c3)coc12)c1ccc(Cl)c(F)c1 (stereo not shown) [Example 381, 7-[1-(4-Chloro-3-fluorophenyl)ethoxy]-3-(1-piperidin-4-yl-1H-pyrazol-4-yl)furo[3,2-c]pyridin-6-ylamine]
8 | > 6.30 | 5.30 to 6.30 | CC(Oc1c(N)ncc2c(-c3cnn(C4CCNCC4)c3)coc12)c1ccc(Br)cc1 (stereo not shown) [Example 388, 7-[1-(4-Bromophenyl)ethoxy]-3-(1-piperidin-4-yl-1H-pyrazol-4-yl)furo[3,2-c]pyridin-6-ylamine]
9 | > 6.30 | 5.30 to 6.30 | CC(Oc1c(N)ncc2c(-c3cnn(C4CCNCC4)c3)coc12)c1cccc(Br)c1 (stereo not shown) [Example 387, 7-[1-(3-Bromophenyl)ethoxy]-3-(1-piperidin-4-yl-1H-pyrazol-4-yl)furo[3,2-c]pyridin-6-ylamine]
10 | > 6.30 | 5.30 to 6.30 | CC(Oc1c(N)ncc2c(-c3cnn(C4CCNCC4)c3)coc12)c1ccccc1Br (stereo not shown) [Example 400, 7-[1-(2-Bromophenyl)ethoxy]-3-(1-piperidin-4-yl-1H-pyrazol-4-yl)furo[3,2-c]pyridin-6-ylamine]
11 | > 6.30 | 5.30 to 6.30 | C[C@@H](Oc1c(N)ncc2c(-c3cnn(C4CCNCC4)c3)coc12)c1ccccc1Cl [Example 335, 7-[(R)-1-(2-Chlorophenyl)ethoxy]-3-(1-piperidin-4-yl-1H-pyrazol-4-yl)-furo[3,2-c]pyridin-6-ylamine]
12 | > 6.30 | > 6.30 | C[C@@H](Oc1c(N)ncc2c(-c3ccnc(N4CCNCC4)c3)coc12)c1c(Cl)ccc(F)c1Cl [Example 132, 7-[(R)-(2,6-Dichloro-3-fluorophenyl)ethoxy]-3-(2-piperazin-1-yl-pyridin-4-yl)furo[3,2-c]pyridin-6-ylamine]
13 | > 6.30 | 5.30 to 6.30 | CC(Cc1c(Cl)cccc1C(F)(F)F)Oc1c(N)ncc2c(-c3cnn(C4CCNCC4)c3)coc12 (stereo not shown) [Example 440, 7-[2-(2-Chloro-6-trifluoromethylphenyl)-1-methylethoxy]-3-(1-piperidin-4-yl-1H-pyrazol-4-yl)furo[3,2-c]pyridin-6-ylamine]
14 | > 6.30 | 5.30 to 6.30 | CC(Oc1c(N)ncc2c(-c3cnn(C4CCNCC4)c3)coc12)c1ccc(C#N)cc1 (stereo not shown) [Example 394, 4-{1-[6-Amino-3-(1-piperidin-4-yl-1H-pyrazol-4-yl)furo[3,2-c]pyridin-7-yloxy]ethyl}benzonitrile]
15 | > 6.30 | 5.30 to 6.30 | CC(Cc1c(F)cccc1F)Oc1c(N)ncc2c(-c3cnn(C4CCNCC4)c3)coc12 (stereo not shown) [Example 418, 7-[2-(2,6-Difluorophenyl)-1-methylethoxy]-3-(1-piperidin-4-yl-1H-pyrazol-4-yl)furo[3,2-c]pyridin-6-ylamine]

More lines, now with the values behind:

Row | Compound | pIC50 (MET (human)) | pIC50 (RON (human))
16 | C[C@@H](Oc1c(N)ncc2c(-c3cnn(CCN4CCOCC4)c3)coc12)c1c(Cl)ccc(F)c1Cl [Example 87, 7-[(R)-1-(2,6-Dichloro-3-fluorophenyl)ethoxy]-3-[1-(2-morpholin-4-ylethyl)-1H-pyrazol-4-yl]furo[3,2-c]pyridin-6-ylamine] | 5.30 to 6.30 | 5.30 to 6.30
17 | C[C@@H](Oc1c(N)ncc2c(C3=CCN(/C(=N\C#N)N(C)C)CC3)coc12)c1c(Cl)ccc(F)c1Cl [Example 196, 4-{6-Amino-7-[(R)-1-(2,6-dichloro-3-fluorophenyl)ethoxy]-furo[3,2-c]pyridin-3-yl}-N,N-cyano-N,N-dimethyl-3,6-dihydro-2H-pyridine-1-carboxamidine] | 5.30 to 6.30 | 5.30 to 6.30
18 | C#CCC(Oc1c(N)ncc2c(C3=CCN(C(N)=O)CC3)coc12)c1c(Cl)ccc(F)c1Cl (stereo not shown) [Example 459, 4-(6-Amino-7-{[1-(2,6-dichloro-3-fluorophenyl)but-3-yn-1-yl]oxy}furo[3,2-c]pyridin-3-yl)-3,6-dihydropyridine-1(2H)-carboxamide] | > 6.30 | 5.30 to 6.30
19 | C[C@@H]1CN(C(=O)c2ccc(-c3coc4c(O[C@H](C)c5c(Cl)ccc(F)c5Cl)c(N)ncc34)cc2)C[C@H](C)N1 (relative stereo) [Example 294, (4-{6-Amino-7-[(R)-1-(2,6-dichloro-3-fluorophenyl)ethoxy]furo[3,2-c]pyridin-3-yl}phenyl)-((3S*,5R*)-3,5-dimethylpiperazin-1-yl)methanone] | > 6.30 | > 6.30
20 | C[C@@H](Oc1c(N)ncc2c(-c3ccc(C(=O)N(C)C)s3)coc12)c1c(Cl)ccc(F)c1Cl [Example 208, 5-{6-Amino-7-[(R)-1-(2,6-dichloro-3-fluorophenyl)ethoxy]-furo[3,2-c]pyridin-3-yl}-thiophene-2-carboxylic acid dimethyl amide] | 5.30 to 6.30 | 5.30 to 6.30
21 | CCN1CCN(C(=O)N2CC=C(c3coc4c(O[C@H](C)c5c(Cl)ccc(F)c5Cl)c(N)ncc34)CC2)CC1 [Example 27, (4-{6-Amino-7-[(R)-1-(2,6-dichloro-3-fluorophenyl)-ethoxy]-furo[3,2-c]pyridin-3-yl}-3,6-dihydro-2H-pyridin-1-yl)-(4-ethylpiperazin-1-yl)-methanone] | > 6.30 | > 6.30
22 | C[C@@H](Oc1c(N)ncc2c(-c3ccc(S(C)(=O)=O)cc3)coc12)c1c(Cl)ccc(F)c1Cl [Example 62, 7-[(R)-1-(2,6-Dichloro-3-fluorophenyl)ethoxy]-3-(4-methane-sulfonylphenyl)furo[3,2-c]pyridin-6-ylamine] | 5.30 to 6.30 | 5.30 to 6.30
23 | COc1cccc(-c2coc3c(O[C@H](C)c4c(Cl)ccc(F)c4Cl)c(N)ncc23)c1 [Example 60, 7-[(R)-1-(2,6-Dichloro-3-fluorophenyl)ethoxy]-3-(3-methoxy-phenyl)furo[3,2-c]pyridin-6-ylamine] | 5.30 to 6.30 | 4.70 to 5.30
24 | C[C@@H](Oc1c(N)ncc2c(-c3ccc(C(N)=O)s3)coc12)c1c(Cl)ccc(F)c1Cl [Example 209, 5-{6-Amino-7-[(R)-1-(2,6-dichloro-3-fluorophenyl)ethoxy]-furo[3,2-c]pyridin-3-yl}-thiophene-2-carboxamide] | 5.30 to 6.30 | 5.30 to 6.30
25 | C[C@@H](Oc1c(N)ncc2c(-c3ccc(Cn4cccn4)cc3)coc12)c1c(Cl)ccc(F)c1Cl [Example 110, 7-[(R)-1-(2,6-Dichloro-3-fluorophenyl)ethoxy]-3-(4-pyrazol-1-ylmethylphenyl)-furo[3,2-c]pyridin-6-ylamine] | 5.30 to 6.30 | 5.30 to 6.30
26 | CCN1CC=C(c2coc3c(O[C@H](C)c4c(Cl)ccc(F)c4Cl)c(N)ncc23)CC1 [Example 40, 7-[(R)-1-(2,6-Dichloro-3-fluorophenyl)-ethoxy]-3-(1-ethyl-1,2,3,6-tetrahydropyridin-4-yl)-furo[3,2-c]pyridin-6-ylamine] | > 6.30 | > 6.30
27 | C[C@@H](Oc1c(N)ncc2c(-c3ccc(C(=O)Nc4nccs4)cc3)coc12)c1c(Cl)ccc(F)c1Cl [Example 109, 4-{6-Amino-7-[(R)-1-(2,6-dichloro-3-fluorophenyl)ethoxy]-furo[3,2-c]pyridin-3-yl}-N-thiazol-2-yl-benzamide] | 5.30 to 6.30 | 5.30 to 6.30
28 | C[C@@H](Oc1c(N)ncc2c(-c3nccs3)coc12)c1c(Cl)ccc(F)c1Cl [Example 135, 7-[(R)-1-(2,6-Dichloro-3-fluorophenyl)-ethoxy]-3-thiazol-2-ylfuro[3,2-c]pyridin-6-ylamine] | 5.30 to 6.30 | 5.30 to 6.30
29 | C[C@@H](Oc1c(N)ncc2c(C3=CCN(C(=O)N4CCNCC4)CC3)coc12)c1c(Cl)ccc(F)c1Cl [Example 33, (4-{6-Amino-7-[(R)-1-(2,6-dichloro-3-fluorophenyl)-ethoxy]-furo[3,2-c]pyridin-3-yl}-3,6-dihydro-2H-pyridin-1-yl)-piperazin-1-ylmethanone] | > 6.30 | > 6.30
